The record followed here is patent publication US8778973B2, “Alkene oxindole derivatives” (Hoffmann-La Roche Inc., priority 2009, dated 2014).

By pEC50 is commonly meant −log10 of the EC50, conventionally taken in molar units.

SMILES strings stand for the structures. pEC50: −log10 of the molar value.

For the experiment, the system named is Recombinant human AMPK proteins (α1β1γ1, α2β1γ1, α1(1-335), α1(1-394) or α2(1-394)). The experiment in a line: Scintillation Proximity Assay (SPA) of AMPK activation. Format: biochemical. The following applies: activator concentration for 50% of maximal enzyme activity; 50 nM recombinant AMPK, 2 μM ATP, 30° C., 2 hr. As to the method:
Recombinant human AMPK α1β1γ1, α2β1γ1 or AMPK α subunit truncations α1(1-335), α1(1-394) and α2(1-394) were constructed, expressed and purified as described previously (Pang, T., Zhang, Z. S., Gu, M., Qiu, B. Y., Yu, L. F., Cao, P. R., Shao, W., Su, M. B., Li, J. Y., Nan, F. J., and Li, J. (2008)). Rat liver AMPK heterotrimer enzyme was obtained from Upstate (Billerica, Mass., U.S.A.).
Scintillation Proximity Assay
Before the Scintillation Proximity Assay (SPA) assay, 200 nM recombinant AMPK proteins (α1β1γ1, α2β1γ1, α1(1-335), α1(1-394) or α2(1-394)) were fully phosphorylated as described previously (Pang et al., 2008). SPA reactions were performed in 96-well plates at a final volume of 501 containing 20 mM Tris-HCl pH 7.5, 5 mM MgCl2, 1 mM DTT, 2 μM biotin-SAMS, 2 μM ATP, 0.2 μCi/well [γ-^33P]ATP, and various amount of activator. Reactions were initiated by the addition of 50 nM recombinant AMPK proteins to the reaction solutions and incubated at 30° C. for 2 hr. After that, reactions were terminated by the addition of 401 stop solution containing 80 μg streptavidin-coated SPA beads per well, 50 mM EDTA, 0.1% Triton X-100 in PBS, pH 7.5 and incubated for 1 hr. Finally, a 160 ul suspension solution containing 2.4 M CsCl, 50 mM EDTA, and 0.1% Triton X-100 in PBS (pH 7.5) was added to the reaction solution to suspend SPA beads completely. SPA signals were determined with a Wallac MicroBeta plate counter (PerkinElmer) 30 min later for calculation of the amount of product formed. The amount of products formed in 2 hr was plotted against activator concentrations to determine the effective concentration of the activator (EC50) required for 50% of maximal enzyme activity.
Compounds as described above have EC50 values between 0.5 uM and 50 uM, preferred compounds have EC50 values between 0.5 uM and 10 uM, particularly preferred compounds have EC50 values between 0.5 uM and 1 uM.
For orientation: In a scintillation proximity assay essentially only radioactivity close to the scintillant gives light.

For the compound `O=C(O)c1cccc(CN2C(=O)/C(=C(\c3ccccc3)c3cc(Cl)cc(Cl)c3)c3ccccc32)c1` [Example 54, 3-{3-[1-(3,5-Dichloro-phenyl)-1-phenyl-meth-(E)-ylidene]-2-oxo-2,3-dihydro-indol-1-ylmethyl}-benzoic acid], the pEC50 was 5.29. The value for `O=C(O)c1cccc(CN2C(=O)/C(=C(\c3ccccc3)c3cccc(Cl)c3Cl)c3ccccc32)c1` [Example 55, 3-{3-[1-(2,3-Dichloro-phenyl)-1-phenyl-meth-(E)-ylidene]-2-oxo-2,3-dihydro-indol-1-ylmethyl}-benzoic acid] was 5.53; that for `O=C(O)c1ccccc1CN1C(=O)/C(=C(\c2ccccc2)c2ccc(Cl)cc2)c2ccccc21` [Example 56, 2-{3-[1-(4-Chloro-phenyl)-1-phenyl-meth-(E)-ylidene]-2-oxo-2,3-dihydro-indol-1-ylmethyl}-benzoic acid] was 5.37. For `O=C(O)c1ccc(CN2C(=O)/C(=C(\c3ccccc3)c3ccc(Cl)cc3)c3ccccc32)cc1` [Example 57, 4-{3-[1-(4-Chloro-phenyl)-1-phenyl-meth-(E)-ylidene]-2-oxo-2,3-dihydro-indol-1-ylmethyl}-benzoic acid] the value was 5.66; for `COc1ccc2c(c1)/C(=C(/c1ccccc1)c1ccc(Cl)cc1)C(=O)N2Cc1cccc(C(=O)O)c1` [Example 58, 3-{3-[1-(4-Chloro-phenyl)-1-phenyl-meth-(E)-ylidene]-5-methoxy-2-oxo-2,3-dihydro-indol-1-ylmethyl}-benzoic acid], 5.31. With `O=C(O)c1ccc(CN2C(=O)/C(=C(\c3ccccc3)c3ccc(Cl)cc3)c3ccccc32)nc1` [Example 59, 6-{3-[1-(4-Chloro-phenyl)-1-phenyl-meth-(E)-ylidene]-2-oxo-2,3-dihydro-indol-1-ylmethyl}-nicotinic acid], the pEC50 was 5.28. For `O=C(O)c1cccc(CN2C(=O)/C(=C(\c3ccccc3)c3ccc(Cl)cc3)c3c(F)cccc32)c1` [Example 60, 3-{3-[1-(4-Chloro-phenyl)-1-phenyl-meth-(E)-ylidene]-4-fluoro-2-oxo-2,3-dihydro-indol-1-ylmethyl}-benzoic acid] the value was 5.91; for `O=C(O)c1cccc(CN2C(=O)/C(=C(\c3ccccc3)c3ccc(Cl)cc3)c3ccc(F)cc32)c1` [Example 61, 3-{3-[1-(4-Chloro-phenyl)-1-phenyl-meth-(E)-ylidene]-6-fluoro-2-oxo-2,3-dihydro-indol-1-ylmethyl}-benzoic acid], 5.31. `CSc1ccccc1/C(=C1/C(=O)N(Cc2cccc(C(=O)O)c2)c2ccccc21)c1ccccc1` [Example 62, 3-{3-[1-(2-Methylsulfanyl-phenyl)-1-phenyl-meth-(E)-ylidene]-2-oxo-2,3-dihydro-indol-1-ylmethyl}-benzoic acid]: the negative logarithm of the EC50 (pEC50) is 5.63. With `O=C(O)c1cccc(CN2C(=O)/C(=C(\c3ccccc3)c3cccnc3)c3ccccc32)c1` [Example 63, 3-{2-Oxo-3-[1-phenyl-1-pyridin-3-yl-meth-(E)-ylidene]-2,3-dihydro-indol-1-ylmethyl}-benzoic acid], the pEC50 is 5.49. The value for `O=C(O)c1cccc(CN2C(=O)/C(=C(\c3ccccc3)c3cc(C(F)(F)F)ccc3Cl)c3ccccc32)c1` [Example 64, 3-{3-[1-(2-Chloro-5-trifluoromethyl-phenyl)-1-phenyl-meth-(E)-ylidene]-2-oxo-2,3-dihydro-indol-1-ylmethyl}-benzoic acid] was 5.18.

Turning to `O=C(O)c1cccc(CN2C(=O)/C(=C(\c3ccccc3)c3cc(C(F)(F)F)cc(C(F)(F)F)c3)c3ccccc32)c1` [Example 65, 3-{3-[1-(3,5-Bis-trifluoromethyl-phenyl)-1-phenyl-meth-(E)-ylidene]-2-oxo-2,3-dihydro-indol-1-ylmethyl}-benzoic acid], the pEC50 is 5.47. For `O=C(O)c1cccc(CN2C(=O)/C(=C(\c3ccccc3)c3cccc(C(F)(F)F)c3)c3ccccc32)c1` [Example 66, 3-{2-Oxo-3-[1-phenyl-1-(3-trifluoromethyl-phenyl)-meth-(E)-ylidene]-2,3-dihydro-indol-1-ylmethyl}-benzoic acid] the value was 5.61; for `NS(=O)(=O)c1ccc(/C(=C2/C(=O)N(Cc3cccc(C(=O)O)c3)c3ccccc32)c2ccccc2)cc1` [Example 67, 3-{2-Oxo-3-[1-phenyl-1-(4-sulfamoyl-phenyl)-meth-(E)-ylidene]-2,3-dihydro-indol-1-ylmethyl}-benzoic acid], 5.90; for `O=C(O)c1cccc(CN2C(=O)/C(=C(/c3ccccc3)c3ccc(Cl)cc3)c3ccccc32)c1` [Example 68, 3-{3-[1-(4-Chloro-phenyl)-1-phenyl-meth-(Z)-ylidene]-2-oxo-2,3-dihydro-indol-1-ylmethyl}-benzoic acid], 5.67. For `O=C(O)c1cccc(CN2C(=O)/C(=C(\c3ccc(Cl)cc3)c3ccc(C(F)(F)F)cc3)c3ccccc32)c1` [Example 69, 3-{3-[1-(4-Chloro-phenyl)-1-(4-trifluoromethyl-phenyl)-meth-(Z)-ylidene]-2-oxo-2,3-dihydro-indol-1-ylmethyl}-benzoic acid] the value was 5.66; for `O=C(O)COc1ccc(CN2C(=O)/C(=C(\c3ccccc3)c3ccc(Cl)cc3)c3ccccc32)cc1` [Example 70, (4-{3-[1-(4-Chloro-phenyl)-1-phenyl-meth-(E)-ylidene]-2-oxo-2,3-dihydro-indol-1-ylmethyl}-phenoxy)-acetic acid], 5.30; for `CC(C)c1ccc(/C(=C2/C(=O)N(Cc3cccc(C(=O)O)c3)c3ccccc32)c2ccccc2)cc1` [Example 71, 3-{3-[1-(4-Isopropyl-phenyl)-1-phenyl-meth-(E)-ylidene]-2-oxo-2,3-dihydro-indol-1-ylmethyl}-benzoic acid], 5.40. Turning to `O=C(O)c1cccc(CN2C(=O)/C(=C(\c3ccccc3)c3ccc(F)c(F)c3)c3ccccc32)c1` [Example 72, 3-{3-[1-(3,4-Difluoro-phenyl)-1-phenyl-meth-(E)-ylidene]-2-oxo-2,3-dihydro-indol-1-ylmethyl}-benzoic acid], the pEC50 is 5.48.

Consider `O=C(O)c1cccc(CN2C(=O)/C(=C(\c3ccccc3)c3ccc(Cl)cc3)c3cccc(F)c32)c1` [Example 73, 3-{3-[1-(4-Chloro-phenyl)-1-phenyl-meth-(E)-ylidene]-7-fluoro-2-oxo-2,3-dihydro-indol-1-ylmethyl}-benzoic acid], for which the pEC50 is 5.29. In the case of `O=C(O)c1cccc(CN2C(=O)/C(=C(\c3ccccc3)c3ccc(Cl)cc3)c3cc(Cl)ccc32)c1` [Example 74, 3-{5-Chloro-3-[1-(4-chloro-phenyl)-1-phenyl-meth-(E)-ylidene]-2-oxo-2,3-dihydro-indol-1-ylmethyl}-benzoic acid], the negative logarithm of the EC50 (pEC50) was 5.50. On to `O=C(O)c1cccc(CN2C(=O)/C(=C(\c3ccccc3)c3ccccc3Cl)c3ccccc32)c1` [Example 75, 3-{3-[1-(2-Chloro-phenyl)-1-phenyl-meth-(E)-ylidene]-2-oxo-2,3-dihydro-indol-1-ylmethyl}-benzoic acid], for which the negative logarithm of the EC50 (pEC50) is 5.74. Turning to `O=C(O)c1csc(CN2C(=O)/C(=C(\c3ccccc3)c3ccc(Cl)cc3)c3ccccc32)n1` [Example 76, 2-{3-[1-(4-Chloro-phenyl)-1-phenyl-meth-(E)-ylidene]-2-oxo-2,3-dihydro-indol-1-ylmethyl}-thiazole-4-carboxylic acid], the pEC50 is 5.29. As to `COC(=O)c1cccc(CN2C(=O)/C(=C(/CCC(C)C)c3ccccc3)c3ccccc32)c1` [Example 77, 3-[3-(4-Methyl-1-phenyl-pent-(Z)-ylidene)-2-oxo-2,3-dihydro-indol-1-ylmethyl]-benzoic acid methyl ester], the pEC50 is 5.59. As for `COC(=O)c1cccc(CN2C(=O)/C(=C(/CC(C)(C)C)c3ccccc3)c3ccccc32)c1` [Example 78, 3-{3-[3,3-Dimethyl-1-phenyl-but-(Z)-ylidene]-2-oxo-2,3-dihydro-indol-1-ylmethyl}-benzoic acid methyl ester], the negative-log EC50 (pEC50) is 5.80. `COC(=O)c1cccc(CN2C(=O)/C(=C(/Cc3ccc(Cl)cc3)c3ccccc3)c3ccccc32)c1` [Example 79, 3-{3-[2-(4-Chloro-phenyl)-1-phenyl-eth-(Z)-ylidene]-2-oxo-2,3-dihydro-indol-1-ylmethyl}-benzoic acid methyl ester]: the pEC50 was 5.77. For `COC(=O)c1cccc(CN2C(=O)/C(=C(\CC(C)(C)C)c3ccccc3)c3ccccc32)c1` [Example 80, 3-{3-[3,3-Dimethyl-1-phenyl-but-(E)-ylidene]-2-oxo-2,3-dihydro-indol-1-ylmethyl}-benzoic acid methyl ester] the value was 5.24.
